The results in this text go back to ChEMBL document CHEMBL1201862, “PubChem BioAssay data set” (2004).

Active and inactive are the calls of the source. How the calls were made is not given here.

Experiment [1] has as its target T1, High affinity choline transporter 1 (Homo sapiens, UniProt Q9GZV3).
T1 sequence (Q9GZV3 whole entry): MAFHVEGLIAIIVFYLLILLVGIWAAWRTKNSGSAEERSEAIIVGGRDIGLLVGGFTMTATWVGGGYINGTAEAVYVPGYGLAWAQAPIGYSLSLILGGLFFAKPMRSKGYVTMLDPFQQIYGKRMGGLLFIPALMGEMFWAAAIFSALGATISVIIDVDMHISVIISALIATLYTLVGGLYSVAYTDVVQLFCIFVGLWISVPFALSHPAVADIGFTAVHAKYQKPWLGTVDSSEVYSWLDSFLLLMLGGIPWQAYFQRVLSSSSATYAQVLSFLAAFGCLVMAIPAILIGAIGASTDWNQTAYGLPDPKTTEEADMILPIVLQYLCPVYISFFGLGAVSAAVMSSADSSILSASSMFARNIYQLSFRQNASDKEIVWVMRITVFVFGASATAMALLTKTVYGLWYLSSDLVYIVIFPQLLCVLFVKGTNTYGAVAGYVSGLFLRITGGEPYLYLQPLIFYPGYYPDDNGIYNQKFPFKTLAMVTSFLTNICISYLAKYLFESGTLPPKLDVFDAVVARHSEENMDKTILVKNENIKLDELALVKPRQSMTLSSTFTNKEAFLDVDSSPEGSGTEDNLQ
The experiment can be described thus: human choline transporter blockers, potency – cell-based, 5-point CRC, membrane potential dye, dose response (AID 504840). It counts as functional.

The target in experiment [2] is T1, High affinity choline transporter 1. The experiment in a line: human choline transporter blockers, potency – cell-based, 10-point CRC, membrane potential dye, dose response (AID 588401).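 Further: membrane potential dye fluorescence of choline-evoked depolarization via CHT.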 It counts as functional.

Usually IC50 stands for the concentration that gives 50% inhibition. On to `Cc1cc(C)c(C(=O)Nc2ccc(S(=O)(=O)Nc3ccccn3)cc2)c(C)c1`, for which the figures for the IC50 in experiment [1] and in experiment [2] were 4.07 µM (active) and 2.7 µM (active), respectively.
